Assay [1] deals with T1, Replicative DNA helicase DnaB (Mycobacterium tuberculosis, UniProt P9WMR3).
T1 sequence (P9WMR3 whole entry): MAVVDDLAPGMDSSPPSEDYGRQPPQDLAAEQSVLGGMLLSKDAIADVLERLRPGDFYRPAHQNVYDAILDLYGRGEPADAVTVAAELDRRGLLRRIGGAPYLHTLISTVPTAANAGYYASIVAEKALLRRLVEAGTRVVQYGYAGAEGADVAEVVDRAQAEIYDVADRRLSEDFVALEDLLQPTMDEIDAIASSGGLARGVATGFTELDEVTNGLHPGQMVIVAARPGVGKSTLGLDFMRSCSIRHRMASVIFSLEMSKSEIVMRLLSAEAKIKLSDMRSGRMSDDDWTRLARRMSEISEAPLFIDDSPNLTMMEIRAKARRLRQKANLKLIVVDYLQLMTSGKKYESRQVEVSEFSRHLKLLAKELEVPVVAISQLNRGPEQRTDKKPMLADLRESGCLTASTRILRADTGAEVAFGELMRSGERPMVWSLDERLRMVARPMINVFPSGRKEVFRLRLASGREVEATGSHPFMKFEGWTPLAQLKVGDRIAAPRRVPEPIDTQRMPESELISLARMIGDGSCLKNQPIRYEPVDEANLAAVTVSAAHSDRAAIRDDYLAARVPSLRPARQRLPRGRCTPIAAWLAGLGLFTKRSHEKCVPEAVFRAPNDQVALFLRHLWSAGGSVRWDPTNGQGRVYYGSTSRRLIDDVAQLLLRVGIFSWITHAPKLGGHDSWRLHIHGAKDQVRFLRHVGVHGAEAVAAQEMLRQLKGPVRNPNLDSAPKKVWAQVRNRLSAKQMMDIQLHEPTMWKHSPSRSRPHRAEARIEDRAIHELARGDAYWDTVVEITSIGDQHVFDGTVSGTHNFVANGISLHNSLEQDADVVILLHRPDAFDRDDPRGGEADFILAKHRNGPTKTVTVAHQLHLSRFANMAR
As to the kind of experiment: DnaB intein splicing inhibitors, dose response, biochemical, cell-free fluorescence (AID 449749). It is filed as functional.

Assay [2] has as its target G-protein coupled receptor 35 (Homo sapiens, UniProt Q9HC97). As to the kind of experiment: inhibition of zaprinast-stimulated GPR35 beta-arrestin translocation – imaging, U2OS, beta-arrestin-GFP, zaprinast agonist, primary screen (AID 2058).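 Further: antagonist potency meaning inhibition of agonist-induced arrestin redistribution.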 The class given is functional.
A further assay deals with T2, Protein RecA (Mycobacterium tuberculosis, UniProt P9WHJ3).
T2 sequence (P9WHJ3 whole entry): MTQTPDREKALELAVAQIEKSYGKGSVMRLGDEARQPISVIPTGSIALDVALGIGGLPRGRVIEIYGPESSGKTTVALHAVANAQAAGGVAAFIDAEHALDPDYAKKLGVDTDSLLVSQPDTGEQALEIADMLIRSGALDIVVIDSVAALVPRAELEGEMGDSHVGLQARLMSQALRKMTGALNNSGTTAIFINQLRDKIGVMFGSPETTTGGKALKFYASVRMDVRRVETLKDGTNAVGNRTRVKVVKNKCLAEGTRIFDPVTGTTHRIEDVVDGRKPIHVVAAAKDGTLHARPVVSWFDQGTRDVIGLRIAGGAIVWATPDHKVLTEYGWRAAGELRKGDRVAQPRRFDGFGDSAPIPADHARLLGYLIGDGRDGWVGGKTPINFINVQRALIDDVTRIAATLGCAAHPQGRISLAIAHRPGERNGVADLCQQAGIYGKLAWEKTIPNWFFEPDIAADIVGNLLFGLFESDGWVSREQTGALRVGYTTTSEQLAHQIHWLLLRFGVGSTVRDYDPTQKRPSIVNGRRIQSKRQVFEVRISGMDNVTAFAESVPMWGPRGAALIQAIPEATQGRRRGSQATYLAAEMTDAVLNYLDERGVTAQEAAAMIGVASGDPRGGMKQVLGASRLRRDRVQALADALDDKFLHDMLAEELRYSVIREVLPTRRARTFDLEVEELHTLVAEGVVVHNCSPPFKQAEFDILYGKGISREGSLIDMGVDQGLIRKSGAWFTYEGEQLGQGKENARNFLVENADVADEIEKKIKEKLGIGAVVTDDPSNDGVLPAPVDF
As to the kind of experiment: Fluorescence Cell-Free Homogeneous Dose Retest to Identify Inhibitors of RecA-Intein Splicing Activity. [Related pubchem assays (depositor defined):AID2097, AID2223, AID489010, AID492950]. It is filed as functional.

For another assay, the system named is Trypanosoma cruzi. Kind of assay: anti-trypanosomal activity in host cells – cell-based, plate reader, dry powder, set 3, dose response (AID 493197). It is filed as functional.
Assay [3] deals with T3, Dual specificity protein phosphatase 6 (Rattus norvegicus, UniProt Q64346).
T3 sequence (Q64346 whole entry): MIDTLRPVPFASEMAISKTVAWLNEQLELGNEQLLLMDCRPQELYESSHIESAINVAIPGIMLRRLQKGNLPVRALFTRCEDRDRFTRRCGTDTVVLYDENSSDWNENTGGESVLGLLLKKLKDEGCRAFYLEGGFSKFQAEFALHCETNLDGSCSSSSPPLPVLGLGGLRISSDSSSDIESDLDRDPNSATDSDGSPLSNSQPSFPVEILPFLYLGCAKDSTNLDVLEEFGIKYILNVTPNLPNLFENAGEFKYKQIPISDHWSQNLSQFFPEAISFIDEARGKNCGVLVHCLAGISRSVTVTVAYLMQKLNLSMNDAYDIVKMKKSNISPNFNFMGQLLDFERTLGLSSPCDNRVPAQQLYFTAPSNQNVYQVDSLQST

Assay [4] has as its target T4, Tyrosine-protein phosphatase non-receptor type 7 (Homo sapiens, UniProt P35236).
T4 sequence (P35236 whole entry): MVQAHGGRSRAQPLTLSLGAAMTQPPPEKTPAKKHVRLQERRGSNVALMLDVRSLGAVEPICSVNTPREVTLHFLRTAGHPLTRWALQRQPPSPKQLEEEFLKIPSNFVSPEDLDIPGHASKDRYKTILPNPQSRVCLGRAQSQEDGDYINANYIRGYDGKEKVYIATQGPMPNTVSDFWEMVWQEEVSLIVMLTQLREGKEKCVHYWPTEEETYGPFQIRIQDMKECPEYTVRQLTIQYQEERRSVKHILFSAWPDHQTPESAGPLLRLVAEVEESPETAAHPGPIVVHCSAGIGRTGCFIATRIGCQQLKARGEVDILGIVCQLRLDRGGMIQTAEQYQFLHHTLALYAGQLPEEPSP
The class given is functional.

Assay [5] deals with T3, Dual specificity protein phosphatase 6. It is filed as functional.
Assay [6] concerns the target Glyceraldehyde-3-phosphate dehydrogenase (Homo sapiens, UniProt P04406).
Assay [7] addresses Scavenger receptor class B member 1 (Mus musculus, UniProt Q61009). Kind of assay: mouse SR-BI DiI-HDL uptake blockers – ldlA[mSR-BI] cells, fluorescence, cherry pick, dose response (AID 493194).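 Further: cellular uptake of fluorescent DiI-labeled HDL measured as cell fluorescence.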 It is filed as functional, cell-based.
For assay [8], the target named is T5, Carboxy-terminal domain RNA polymerase II polypeptide A small phosphatase 1 (Homo sapiens, UniProt Q9GZU7).
T5 sequence (Q9GZU7 whole entry): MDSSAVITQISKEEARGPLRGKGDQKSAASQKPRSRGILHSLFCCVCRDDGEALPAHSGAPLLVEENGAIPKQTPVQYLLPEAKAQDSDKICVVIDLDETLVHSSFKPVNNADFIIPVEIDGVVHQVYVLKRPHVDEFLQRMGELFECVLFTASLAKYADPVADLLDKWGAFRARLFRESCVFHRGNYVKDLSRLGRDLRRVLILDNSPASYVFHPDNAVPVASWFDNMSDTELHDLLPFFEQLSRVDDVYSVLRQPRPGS
As to the kind of experiment: CTDSP1 inhibitors, concentration-response, biochemical, absorbance readout, ultra-high-throughput screen actives (AID 540297). It is filed as functional.

The next assay has as its target Bcl-2-like protein 10 (Homo sapiens, UniProt Q9HD36). Kind of assay: Bcl-B/TR3 peptide binding disruption – biochemical, fluorescence polarization, FITC-TR3 peptide, selectivity assay for Bfl-1 inhibitor project, primary screen (AID 748).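 Further: fluorescence polarization from a fluorescein-labelled TR3 peptide binding purified Bcl-B.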
Another assay has as its target T6, Coagulation factor XII (Homo sapiens, UniProt P00748).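 Further: activated factor XIIa alpha cleaving a fluorogenic AMC peptide substrate; inhibitor potency from loss of enzyme activity.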
T6 sequence (P00748 whole entry): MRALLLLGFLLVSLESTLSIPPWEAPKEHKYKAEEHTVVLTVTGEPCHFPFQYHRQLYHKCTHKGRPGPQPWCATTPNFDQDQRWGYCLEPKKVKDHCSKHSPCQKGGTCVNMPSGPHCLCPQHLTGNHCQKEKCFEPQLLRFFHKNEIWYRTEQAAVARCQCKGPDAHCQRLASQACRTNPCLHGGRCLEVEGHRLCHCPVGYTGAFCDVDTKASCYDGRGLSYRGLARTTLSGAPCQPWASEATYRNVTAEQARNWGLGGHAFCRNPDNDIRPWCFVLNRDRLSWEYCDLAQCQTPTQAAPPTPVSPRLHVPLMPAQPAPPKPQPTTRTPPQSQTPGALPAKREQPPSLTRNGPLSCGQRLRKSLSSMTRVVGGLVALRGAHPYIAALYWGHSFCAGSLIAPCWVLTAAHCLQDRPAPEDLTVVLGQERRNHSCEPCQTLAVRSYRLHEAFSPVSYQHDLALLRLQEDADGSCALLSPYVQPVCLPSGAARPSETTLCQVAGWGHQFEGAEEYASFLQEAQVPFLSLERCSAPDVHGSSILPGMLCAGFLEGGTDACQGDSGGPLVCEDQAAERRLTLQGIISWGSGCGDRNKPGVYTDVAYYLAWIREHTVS
It is filed as functional.

Assay [9] has as its target Induced myeloid leukemia cell differentiation protein Mcl-1 (Homo sapiens, UniProt Q07820). The class given is functional.
The target of another assay is T7, Caspase-3 (Homo sapiens, UniProt P42574).
T7 sequence (P42574 whole entry): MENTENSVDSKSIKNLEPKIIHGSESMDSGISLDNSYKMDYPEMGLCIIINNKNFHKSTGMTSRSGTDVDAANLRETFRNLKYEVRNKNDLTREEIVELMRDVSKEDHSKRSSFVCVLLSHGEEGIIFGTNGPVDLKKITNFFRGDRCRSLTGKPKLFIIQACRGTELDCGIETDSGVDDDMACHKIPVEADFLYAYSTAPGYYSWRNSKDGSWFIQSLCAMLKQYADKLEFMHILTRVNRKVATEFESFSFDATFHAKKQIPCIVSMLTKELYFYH
Kind of assay: activators of human procaspase-3 D3A mutant – biochemical, absorbance, PC-3 D3A mutant, counter-screen for dual procaspase-3/7 activator project, dose response (AID 504328).

Assay [10] is described as follows: A Cell Based Secondary Assay To Explore Cytotoxicity of Compounds that Sensitize Mycobacterium Tuberculosis to Beta-Lactam Antibiotics. It is filed as functional.
Assay [11] can be described thus: viability of HCT116 lacking mutant beta-catenin – cell-based, human colon tumor, dose response (AID 1045).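 Further: HCT116 colon tumor cells with beta catenin knocked out; cells exposed to compound for 60 hours.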 It is filed as functional.
The nature of assay [12]: viability of PTEN-deleted HCT116 cells – cell-based, HCT116 PTEN knockout, dose response (AID 1047).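 Further: HCT116 colon tumor cells with PTEN knocked out; cells exposed to compound for 60 hours before readout; potency for loss of cell viability measured by luminescence.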 It is filed as functional.
A further assay has as its target Caspase-7 (Homo sapiens, UniProt P55210). Kind of assay: potency of procaspase-7 enzyme activation – biochemical, absorbance, human, dual procaspase-3/-7 activator project, dose response (AID 504330).
The target of assay [13] is T8, Eukaryotic translation initiation factor 2-alpha kinase 3 (Homo sapiens, UniProt Q9NZJ5). Kind of assay: Dose response cell-based high-throughput screening assay to measure PERK inhibition. [Related pubchem assays: 1416 ]. The class given is functional.
Assay [14] addresses T8, Eukaryotic translation initiation factor 2-alpha kinase 3. Kind of assay: Counterscreen assay for PERK inhibitors: Dose response cell-based high throughput screening assay to measure inhibition of PERK at 6 hours. [Related pubchem assays: 1522, 1416 ]. It is filed as functional. On the technique in general: A counterscreen serves to expose hits that act by an unwanted route or on another target.

In assay [15] the target is Melanin-concentrating hormone receptor 1 (Homo sapiens, UniProt Q99705). As to the kind of experiment: Late-stage fluorescence-based counterscreen for antagonists of the G-protein coupled receptor 7 (GPR7): cell-based dose response assay to identify antagonists of the melanin-concentrating hormone receptor 1 (MCHR1). [Related pubchem assays (depositor defined):AID1861, AID1880, AID1952, AID2148, AID2251, AID2257, AID485339]. The class given is functional.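 Further: stimulated with 30 nM MCH peptide agonist.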

Each structure is given as a SMILES string. Calls of active or inactive are those of the source. A value given as a limit tells only on which side of the number the result lay.

T8 sequence (Q9NZJ5 whole entry): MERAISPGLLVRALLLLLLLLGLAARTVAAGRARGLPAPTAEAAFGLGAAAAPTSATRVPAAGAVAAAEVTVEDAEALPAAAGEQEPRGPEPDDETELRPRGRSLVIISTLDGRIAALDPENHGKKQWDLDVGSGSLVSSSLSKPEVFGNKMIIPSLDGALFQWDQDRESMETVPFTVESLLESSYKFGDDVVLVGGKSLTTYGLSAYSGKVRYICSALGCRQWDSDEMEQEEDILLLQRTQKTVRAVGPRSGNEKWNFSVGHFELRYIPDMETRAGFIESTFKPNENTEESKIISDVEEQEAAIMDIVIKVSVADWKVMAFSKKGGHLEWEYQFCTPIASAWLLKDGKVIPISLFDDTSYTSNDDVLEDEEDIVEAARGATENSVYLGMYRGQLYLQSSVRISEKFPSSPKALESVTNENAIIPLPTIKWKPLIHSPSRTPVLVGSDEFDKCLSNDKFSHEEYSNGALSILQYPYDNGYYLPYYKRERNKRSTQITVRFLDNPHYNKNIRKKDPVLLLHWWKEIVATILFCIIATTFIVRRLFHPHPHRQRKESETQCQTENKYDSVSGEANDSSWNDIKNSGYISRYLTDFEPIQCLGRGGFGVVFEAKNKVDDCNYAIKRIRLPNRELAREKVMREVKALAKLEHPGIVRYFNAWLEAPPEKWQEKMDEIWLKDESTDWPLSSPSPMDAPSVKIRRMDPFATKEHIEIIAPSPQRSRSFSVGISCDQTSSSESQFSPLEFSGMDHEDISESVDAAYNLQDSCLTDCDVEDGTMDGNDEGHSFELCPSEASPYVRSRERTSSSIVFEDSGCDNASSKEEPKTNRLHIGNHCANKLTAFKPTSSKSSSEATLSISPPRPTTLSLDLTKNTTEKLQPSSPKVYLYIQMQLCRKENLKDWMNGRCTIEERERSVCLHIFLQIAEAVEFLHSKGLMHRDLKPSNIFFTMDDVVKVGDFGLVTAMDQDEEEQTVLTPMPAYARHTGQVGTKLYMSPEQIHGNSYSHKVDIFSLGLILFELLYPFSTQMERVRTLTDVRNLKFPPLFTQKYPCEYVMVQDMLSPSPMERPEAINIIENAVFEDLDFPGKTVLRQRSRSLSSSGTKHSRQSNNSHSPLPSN
Sequence of G-protein coupled receptor 35 (Q9HC97 whole entry): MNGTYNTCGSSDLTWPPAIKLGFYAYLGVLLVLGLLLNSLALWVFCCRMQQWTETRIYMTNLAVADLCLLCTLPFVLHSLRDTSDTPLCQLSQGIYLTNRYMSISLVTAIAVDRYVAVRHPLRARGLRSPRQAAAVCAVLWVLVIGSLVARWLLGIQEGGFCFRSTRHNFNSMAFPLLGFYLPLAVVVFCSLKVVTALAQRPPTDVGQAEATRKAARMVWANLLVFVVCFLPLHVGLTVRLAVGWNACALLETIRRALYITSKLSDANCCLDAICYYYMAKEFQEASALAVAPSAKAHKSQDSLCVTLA
Sequence of Bcl-2-like protein 10 (Q9HD36 whole entry): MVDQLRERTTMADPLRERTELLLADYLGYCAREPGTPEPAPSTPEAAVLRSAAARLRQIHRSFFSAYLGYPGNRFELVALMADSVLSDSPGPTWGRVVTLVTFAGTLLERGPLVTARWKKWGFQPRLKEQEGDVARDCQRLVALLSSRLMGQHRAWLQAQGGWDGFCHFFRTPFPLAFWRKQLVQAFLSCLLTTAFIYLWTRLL
Sequence of Glyceraldehyde-3-phosphate dehydrogenase (P04406 whole entry): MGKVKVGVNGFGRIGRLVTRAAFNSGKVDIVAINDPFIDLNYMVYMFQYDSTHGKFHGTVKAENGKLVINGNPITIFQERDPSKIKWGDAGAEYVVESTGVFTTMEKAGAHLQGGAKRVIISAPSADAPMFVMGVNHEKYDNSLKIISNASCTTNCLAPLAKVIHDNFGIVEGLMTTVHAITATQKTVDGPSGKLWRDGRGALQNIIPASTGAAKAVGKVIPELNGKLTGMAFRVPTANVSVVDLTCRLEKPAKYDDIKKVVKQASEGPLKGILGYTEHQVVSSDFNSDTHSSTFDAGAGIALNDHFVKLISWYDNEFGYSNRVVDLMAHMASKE
Sequence of Melanin-concentrating hormone receptor 1 (Q99705 whole entry): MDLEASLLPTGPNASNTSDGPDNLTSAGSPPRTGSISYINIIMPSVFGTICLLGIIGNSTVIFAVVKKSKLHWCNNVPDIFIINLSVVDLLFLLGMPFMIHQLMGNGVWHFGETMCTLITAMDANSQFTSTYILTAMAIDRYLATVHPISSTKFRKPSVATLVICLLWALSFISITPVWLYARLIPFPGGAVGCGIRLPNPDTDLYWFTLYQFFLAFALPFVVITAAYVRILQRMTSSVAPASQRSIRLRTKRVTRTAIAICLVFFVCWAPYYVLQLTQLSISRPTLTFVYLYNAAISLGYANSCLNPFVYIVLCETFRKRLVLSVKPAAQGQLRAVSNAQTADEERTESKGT
Sequence of Induced myeloid leukemia cell differentiation protein Mcl-1 (Q07820 whole entry): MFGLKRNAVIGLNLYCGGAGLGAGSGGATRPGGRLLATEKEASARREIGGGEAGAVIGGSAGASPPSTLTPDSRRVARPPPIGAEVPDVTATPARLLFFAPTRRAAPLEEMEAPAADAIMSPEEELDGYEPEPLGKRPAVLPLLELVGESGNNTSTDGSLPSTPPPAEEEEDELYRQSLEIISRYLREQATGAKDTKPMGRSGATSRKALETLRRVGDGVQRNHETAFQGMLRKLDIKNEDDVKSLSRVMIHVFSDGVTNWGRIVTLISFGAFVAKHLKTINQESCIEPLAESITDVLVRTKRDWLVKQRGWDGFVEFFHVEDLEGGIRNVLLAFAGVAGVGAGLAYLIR
Sequence of Scavenger receptor class B member 1 (Q61009 whole entry, the tested form may be a part): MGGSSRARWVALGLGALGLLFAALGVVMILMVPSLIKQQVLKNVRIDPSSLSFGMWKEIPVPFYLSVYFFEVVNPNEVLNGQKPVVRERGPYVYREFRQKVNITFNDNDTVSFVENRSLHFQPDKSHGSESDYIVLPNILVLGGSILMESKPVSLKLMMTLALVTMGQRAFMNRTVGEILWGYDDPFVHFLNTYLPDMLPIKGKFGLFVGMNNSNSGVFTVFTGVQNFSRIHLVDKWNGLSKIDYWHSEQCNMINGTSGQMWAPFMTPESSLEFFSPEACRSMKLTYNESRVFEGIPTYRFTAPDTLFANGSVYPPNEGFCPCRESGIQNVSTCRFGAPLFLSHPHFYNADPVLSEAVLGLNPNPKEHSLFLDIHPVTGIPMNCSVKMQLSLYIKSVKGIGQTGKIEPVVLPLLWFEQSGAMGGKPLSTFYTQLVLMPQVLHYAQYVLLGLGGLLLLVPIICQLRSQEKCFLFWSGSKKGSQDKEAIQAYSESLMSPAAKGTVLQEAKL

One may read the AC50 as the concentration giving half of the maximal activity seen. A word on the IC50: it is the concentration at which inhibition is half-maximal. The term EC50 denotes the concentration giving half of the maximal effect. Take `O=C(/C=C/c1ccco1)c1ccc(NC(=O)C23CC4CC(CC(C4)C2)C3)cc1`: in assay [1], the AC50 was > 380 µM (inactive). For the same compound, the half-inhibitory concentration (IC50) in [2] was 4.96 µM (active). Besides, the EC50 on Protein RecA was 55.5 µM (active).

In the case of `COc1ccc(C(C)NC(=O)C2CCN(CCCc3ccccc3)CC2)cc1OC` (stereo unspecified), the AC50 in the assay with Trypanosoma cruzi was 66.3 µM (active).

Consider `Cc1ccc(CC(=O)Nc2cc(C)on2)cc1`, for which the IC50 in assay [3] is > 100 µM (inactive); in assay [4], > 100 µM (not active); in assay [5], > 100 µM (inactive); in [6] it was 93.8 µM (active).

For the compound `CCOC(=O)N1CCN(C(=O)C2CCN(C(=O)Nc3ccccc3)CC2)CC1`, the AC50 in assay [7] is 136 µM (active).

For the compound `O=C(NCc1ccco1)c1c2c(nc3ccccc13)CCC2`, the IC50 is 5.65 µM (active) in [8], 16.4 µM (active) on Bcl-2-like protein 10, > 50 µM (inactive) on Coagulation factor XII and 4.33 µM (active) in assay [9].

A word on the CC50: it is the concentration that lowers cell viability or growth by half. In the case of `O=c1c(O)c(-c2ccc3c(c2)OCO3)oc2ccccc12`, the EC50 on Caspase-3 was > 85.3 µM (inactive); in assay [11] it was 23.1 µM (active); in [12] it was 41.7 µM (active); on Caspase-7, > 85.3 µM (inactive). In addition, the half-maximal cytotoxic concentration (CC50) in assay [10] is > 40 µM (active).

As for `O=C(CCc1ccccc1)NCC(=O)N/N=C/c1ccc(O)cc1O`, the concentration for a half-maximal effect (EC50) in assay [13] and in assay [14] was > 55.7 µM (not active) each time.

Turning to `COc1ccc(Oc2c(C)cnn(-c3ccc(C(C)C)cc3)c2=O)cc1`, the 50% inhibitory concentration (IC50) in assay [15] was 9.8 µM (active).

The values above are taken from ChEMBL document CHEMBL1201862, “PubChem BioAssay data set” (2004).
